ChEMBL document CHEMBL2016508, “Synthesis and biological activity of bi/tricyclic azasugars fused thiazolidin-4-one and thiazinan-4-one by microwave-assisted tandem Staudinger/aza-Wittig/cyclization” (2012)
Active and inactive are the calls of the source. No cut-off for these calls is given here.

Columns and labels:
[1] = tested on: T-cell; experiment: Effect on proliferation of Balb/C mouse T cells at 5 uM after 72 hrs by MTT assay; assay type: functional, cell-based
[2] = tested on: YAC-1; experiment: Immunopotentiating activity in Balb/C mouse NK cells assessed as induction of killing activity against YAC-1 cells at 5 uM after 4 hrs by MTT assay; assay type: functional
[3] = tested on: Saccharomyces cerevisiae; experiment: Inhibition of yeast alpha-glucosidase using PNPG as substrate at 100 uM preincubated for 10 mins prior substrate addition measured after 10 mins by UV-Vis spectrophotometry
[4] = tested on: Bacillaceae; experiment: Inhibition of Bacillaceae alpha-amylase using starch as substrate at 100 uM preincubated for 10 mins prior substrate addition measured after 10 mins by UV-Vis spectrophotometry
[5] = tested on: Prunus dulcis; experiment: Inhibition of almonds beta-glucosidase using D-(-)salicin as substrate at 100 uM preincubated for 10 mins prior substrate addition measured after 10 mins by UV-Vis spectrophotometry
[6] = tested on: YAC-1; experiment: Immunopotentiating activity in Balb/C mouse NK cells assessed as induction of killing activity against YAC-1 cells at 50 uM after 4 hrs by MTT assay; assay type: functional
[7] = tested on: T-cell; experiment: Effect on proliferation of Balb/C mouse T cells at 50 uM after 72 hrs by MTT assay; assay type: functional, cell-based

In the case of `O=C1CS[C@@H]2[C@@H](O)[C@@H](O)[C@H](O)CN12`, the Activity [1] is reported as “inactive”, the Activity [2] is reported as “inactive” and the inhibition [3] is reported as “inactive”. The inhibition [4] was “inactive”, the inhibition [5] was “inactive” and the Activity [6] was “inactive”. The Activity [7] was “inactive”.
For `O=C1CS[C@H]2[C@H](O)[C@H](O)[C@H](O)CN12`, the Activity [1] was “inactive”, the Activity [2] was “inactive” and the inhibition [3] was “inactive”. For the same compound, the inhibition [4] was “inactive”, the inhibition [5] was 23% and the Activity [6] was “inactive”. The Activity [7] was “inactive”.
With `O=C1CCS[C@H]2[C@@H](O)[C@@H](O)[C@H](O)CN12` the Activity [1] was “inactive”, the Activity [2] was 69% and the inhibition [3] was “inactive”. The inhibition [4] was “inactive”, the inhibition [5] was “inactive” and the Activity [6] was 45%. The Activity [7] was “inactive”.
`O=C1c2cccnc2S[C@@H]2[C@H](O)[C@H](O)[C@H](O)CN12` was tested, and the Activity [1] was “inactive”, the Activity [2] was 45% and the inhibition [3] was “inactive”. The inhibition [4] was “inactive”, the inhibition [5] was “inactive” and the Activity [6] was 71%. For the same compound, the Activity [7] was “inactive”.
`O=C1CCS[C@@H]2[C@H](O)[C@H](O)[C@H](O)CN12` was tested, and the Activity [1] was “inactive”, the Activity [2] was “inactive” and the inhibition [3] was “inactive”. The inhibition [4] was “inactive”, the inhibition [5] was “inactive” and the Activity [6] was “inactive”. The Activity [7] was “inactive”.
`O=C1c2cccnc2S[C@H]2[C@H](O)[C@H](O)[C@H](O)CN12` was tested, and the Activity [1] was “inactive”, the Activity [2] was “inactive” and the inhibition [3] was “inactive”. For the same compound, the inhibition [4] was “inactive”, the inhibition [5] was “inactive” and the Activity [6] was “inactive”. For the same compound, the Activity [7] was “inactive”.
With `O=C1CS[C@H]2[C@@H](O)[C@@H](O)[C@H](O)CN12` the Activity [1] was “inactive”, the Activity [2] was 72% and the inhibition [3] was “inactive”. The inhibition [4] was “inactive”, the inhibition [5] was 19% and the Activity [6] was 93%. For the same compound, the Activity [7] was “inactive”.
With `O=C1c2ccccc2S[C@H]2[C@@H](O)[C@@H](O)[C@H](O)CN12` the Activity [1] was “inactive”, the Activity [2] was 46% and the inhibition [3] was “inactive”. The inhibition [4] was “inactive”, the inhibition [5] was “inactive” and the Activity [6] was 73%. The Activity [7] was “inactive”.
In the case of `O=C1c2ccccc2S[C@@H]2[C@@H](O)[C@@H](O)[C@H](O)CN12`, the Activity [1] is reported as “inactive”, the Activity [2] is reported as “inactive” and the inhibition [3] is reported as “inactive”. The inhibition [4] was “inactive”, the inhibition [5] was “inactive” and the Activity [6] was “inactive”. For the same compound, the Activity [7] was “inactive”.
For `O=C1c2cccnc2S[C@@H]2[C@@H](O)[C@@H](O)[C@H](O)CN12`, the Activity [1] was “inactive”, the Activity [2] was 55% and the inhibition [3] was “inactive”. For the same compound, the inhibition [4] was “inactive”, the inhibition [5] was 19% and the Activity [6] was 81%. The Activity [7] was “inactive”.
`O=C1c2ccccc2S[C@H]2[C@H](O)[C@H](O)[C@H](O)CN12` was tested, and the Activity [1] was “inactive”, the Activity [2] was “inactive” and the inhibition [3] was “inactive”. For the same compound, the inhibition [4] was “inactive”, the inhibition [5] was “inactive” and the Activity [6] was “inactive”. For the same compound, the Activity [7] was “inactive”.
In the case of `O=C1CCS[C@@H]2[C@@H](O)[C@@H](O)[C@H](O)CN12`, the Activity [1] is reported as “inactive”, the Activity [2] is reported as “inactive” and the inhibition [3] is reported as “inactive”. The inhibition [4] was “inactive”, the inhibition [5] was “inactive” and the Activity [6] was “inactive”. The Activity [7] was “inactive”.
`O=C1CS[C@@H]2[C@H](O)[C@H](O)[C@H](O)CN12` was tested, and the Activity [1] was “inactive”, the Activity [2] was 70% and the inhibition [3] was “inactive”. The inhibition [4] was “inactive”, the inhibition [5] was “inactive” and the Activity [6] was 87%. The Activity [7] was “inactive”.
`O=C1c2ccccc2S[C@@H]2[C@H](O)[C@H](O)[C@H](O)CN12` was tested, and the Activity [1] was “inactive”, the Activity [2] was “inactive” and the inhibition [3] was “inactive”. For the same compound, the inhibition [4] was “inactive”, the inhibition [5] was “inactive” and the Activity [6] was “inactive”. The Activity [7] was “inactive”.
For `O=C1c2cccnc2S[C@H]2[C@@H](O)[C@@H](O)[C@H](O)CN12`, the Activity [1] was “inactive”, the Activity [2] was 67% and the inhibition [3] was “inactive”. For the same compound, the inhibition [4] was “inactive”, the inhibition [5] was 35% and the Activity [6] was 97%. For the same compound, the Activity [7] was “inactive”.
In the case of `O=C1CCS[C@H]2[C@H](O)[C@H](O)[C@H](O)CN12`, the Activity [1] is reported as “inactive”, the Activity [2] is reported as “inactive” and the inhibition [3] is reported as “inactive”. The inhibition [4] was “inactive”, the inhibition [5] was 18% and the Activity [6] was “inactive”. The Activity [7] was “inactive”.
